Key:
[1] = target: T1, native CAC (mitochondrial rat liver extract) (Rattus norvegicus, UniProt P97521); assay: Transport activity of native CAC from mitochondrial extract reconstituted into liposomes; type: biochemical; settings: after 30 min of incubation; concentration range 1–200 μM; read-out: EC50 of activation of native CAC
T1 construct: Mitochondrial rat liver extract (0.3 mg proteins in 3% Triton X-100) containing native CAC was reconstituted into liposomes; from tissue; host or cells: rat liver mitochondrial Triton X-100 extract
T1 sequence (P97521 1-301): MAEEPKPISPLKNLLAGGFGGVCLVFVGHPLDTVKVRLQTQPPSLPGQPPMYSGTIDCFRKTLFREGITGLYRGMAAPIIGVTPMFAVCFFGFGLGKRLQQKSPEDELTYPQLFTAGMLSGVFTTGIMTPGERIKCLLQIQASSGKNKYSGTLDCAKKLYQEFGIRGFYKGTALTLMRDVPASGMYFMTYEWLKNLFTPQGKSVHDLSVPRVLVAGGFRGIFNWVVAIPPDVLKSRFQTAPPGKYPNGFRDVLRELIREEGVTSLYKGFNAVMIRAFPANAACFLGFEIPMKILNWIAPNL
Experimental: (§1) To detect the effect of DAN on native CAC, mitochondrial extract was reconstituted into liposomes and transport activity was measured adding various concentrations of compound. In Figure 7A, the dose–response curve is shown. […] Thus, the effect of different concentrations of DAN was tested also on the purified recombinant wild-type (WT) CAC carrier reconstituted into liposomes, measuring the antiport rate of carnitine.
Mitochondrial rat liver extract (0.3 mg proteins in 3% Triton X-100) containing native CAC was reconstituted into liposomes by removing the detergent from the mixed micelles through a hydrophobic ion-exchange column containing the resin Amberlite XAD-4, as described previously. […]
Before starting the transport activity, proteoliposomes were passed through a Sephadex G-75 column (0.7 cm diameter; 15 cm height; Pharmacia, Milan, Italy) to remove the external substrate. […] Finally, the external substrate was removed by chromatography on Sephadex G-75 columns (0.7 cm diameter; 10 cm height) and intraliposomal radioactivity was measured by a liquid scintillation counter (Perkin Elmer, Milan, Italy).
EC50 values were calculated using AATBioquest EC50 calculator [60]. […]

[2] = target: T2, recombinant wild-type (WT) CAC (Rattus norvegicus, UniProt P97521); assay: Transport activity of purified recombinant WT CAC reconstituted into liposomes; type: biochemical
T2 construct: made in house; host or cells: Escherichia coli C0214
T2 sequence (P97521 1-301): T1 sequence (P97521 1-301)
Experimental: as §1
The reducing properties of DAN were studied on the recombinant WT CAC with the protein at different states of oxidation. Figure 8B highlights that when the carrier was incubated during the transport activity with 1 mM dithioerythritol (DTE), 10 µM DAN was able to reduce a major aliquot of oxidized protein (70% recovery of activity compared to the control). […] To identify the cysteines responsible for the activation of the CAC carrier, the proteoliposomes of the WT protein and the mutants C136S, C155S, C136/155S, and C-lessV (C23V/C58V/C89S/C136V/C155V/C283S) were incubated with 10 μM DAN. […] Further evidence of the reducing action of DAN on CAC was obtained by oxidation of the reconstituted WT protein under controlled conditions, i.e., in the presence or absence of hydrogen peroxide and its subsequent degradation by the enzyme catalase. […] The addition of 20 µM DAN led to a significant recovery (about 80%) of the transport function, after treatment of the carrier with H2O2.
The previously constructed pMW7-WTrat CAC recombinant plasmid was used as a template to introduce mutations in the CAC protein using complementary mutagenic primers and the High Fidelity PCR System (Roche, Basel, Switzerland). The PCR products were purified by the QIAEX II Gel Extraction Kit (QIAGEN, Milan, Italy), digested with the restriction enzymes Nde I and Hind III (New England Biolabs, Ipswich, MA, USA) and ligated into the pMW7 cloning vector (given as a gift). All resulting pMW7-rat CAC constructs were verified by DNA sequencing. Except for the desired base changes, all the sequences corresponded to the CAC coding sequence. Bacterial overexpression was obtained using the expression vector of Escherichia coli C0214 (given as a gift). Wild-type and mutants rat CAC inclusion body fractions were isolated from E. coli, solubilized, and purified as previously described.
Mitochondrial rat liver extract (0.3 mg proteins in 3% Triton X-100) containing native CAC was reconstituted into liposomes by removing the detergent from the mixed micelles through a hydrophobic ion-exchange column containing the resin Amberlite XAD-4, as described previously. The reconstitution mixture of mitochondrial or recombinant CAC proteins was composed of protein, 1% Triton X-100, 10 mg of egg yolk phospholipids (L-α-phosphatidylcholine from fresh turkey egg yolk), in the form of sonicated liposomes, 30 mM NaH2PO4 at pH 7.0, 15 mM carnitine, in a final volume of 680 μL. This mixture was passed 15 times, at room temperature, through the same Amberlite column (Pasteur pipette filled with 0.5 g resin) pre-equilibrated with a buffer containing 30 mM NaH2PO4 at pH 7.0 and 15 mM carnitine.
Before starting the transport activity, proteoliposomes were passed through a Sephadex G-75 column (0.7 cm diameter; 15 cm height; Pharmacia, Milan, Italy) to remove the external substrate. The turbid eluate (550 μL) from the Sephadex column was collected and used for transport measurement by the inhibitor-stop method. For uptake measurements, transport at 25 °C was started by adding 0.1 mM [^3H]-carnitine to proteoliposomes and stopped by the addition of 0.1 mM NEM. In control samples, the inhibitor was added together with the labeled substrate at time zero. The experimental values were corrected by subtracting control values. […]

Structure (SMILES): O=C1CN(/N=C/c2ccc(-c3ccc([N+](=O)[O-])cc3)o2)C(O)=N1 [Dantrolene]
- EC50 [1]: 18 ± 5 µM
- transport activity of WT CAC over time compared to the control ([2]; 10 μM, average values over time intervals): around 160%
- recovery of activity compared to the control ([2]; 10 µM, carrier incubated with 1 mM DTE): 70%
- recovery of activity ([2]; 10 µM, carrier incubated with 50 mM DTE): 25%
- increase in transport activity on WT ([2]; 10 μM, proteoliposomes of WT protein): 180%
- recovery of the transport function after H2O2 ([2]; 20 µM, after 1 mM H2O2 for 10 min at 37 °C (activity decreased to about 50% without compound)): about 80%
- EC50 ([2]; after 30 min of incubation, read-out: EC50 of activation of recombinant WT CAC): 9.3 ± 3.1 µM
- concentration for whole activation of the WT protein ([2]; dose–response curve, 30 min): above 50 μM
